Source: US20230265083A1, “Heterocycle CDK Inhibitors And Their Use Thereof” (Prelude Therapeutics Incorporated, priority 2020, published 2023)

Assays:
CDK4/Cyclin D1 = target: T1, CDK4/Cyclin D1 (Homo sapiens, UniProt P11802); assay: CDK4/CyclinD1 Enzymatic Activity Assay (TR-FRET); format: biochemical; settings: ATP 2 mM, recombinant CDK4/Cyclin D1 1 nM, read-out: CDK4_D1 IC50
T1 construct: purchased ProQinase; host or cells: insect cell
Method: CDK4/CyclinD1 Enzymatic Activity Assay
(§1) The inhibitory activity of compounds was evaluated in vitro using TR-FRET assay with white 384-well low volume microplate (Greiner Bio-One). CDK4/Cyclin D1 catalyzed phosphorylation of peptides in the presence and absence of compounds was measured and used in IC50 determination. Recombinant protein complex CDK4/Cyclin D1, expressed from insect cell, was purchased from ProQinase. Testing compounds were dissolved in DMSO at 1 mM and tested in 9-dose IC50 mode. The reaction mixture was prepared by mixing CDK4/CyclinD1 (1 nM final), ULight-4E-BP1 (100 nM final, Perkinelmer, TRF0128-D), and ATP (2 mM final) in assay buffer (20 mM of HEPES pH 7.4, 1 mM of EGTA, 0.05% BSA, 0.005% Tween 20, and 1 mM TCEP). The compound of interest in DMSO was added to each well in 3-fold serial dilution by the dispenser (TECAN D300E) to make a 9.9 μL of the reaction mixture. After 20 minutes of preincubation at room temperature, 0.1 μL MgCl2 (10 mM final) was added to initiate the reaction. Following a 45 minutes incubation at 37° C., the reaction was stopped by the addition of 2 μL of quenching buffer consisting of Lance detection buffer (Perkinelmer CR97-100C), LANCE Ultra Europium-anti-P-4E-BP1 (Perkinelmer, TRF0216-D), EDTA, and incubate at room temperature for additional 60 minutes in the dark. The reaction signal was measured by Envision multimode plate reader (PerkinElmer, 2102-0010). IC50 values were determined by fitting the data to the standard 4 parameters with Hill Slope using GraphPad Prism software.

CDK9/Cyclin T1 = target: T2, CDK9/Cyclin T1 (Homo sapiens, UniProt P50750); assay: CDK9/CyclinT1 Enzymatic Activity Assay (TR-FRET); format: biochemical; settings: ATP 1 mM, recombinant CDK9/Cyclin T1 1 nM, read-out: CDK9_T1 IC50
T2 construct: purchased ProQinase; host or cells: insect cell
Method: CDK9/CyclinT1 Enzymatic Activity Assay
as §1, with “Bio-One). CDK9/Cyclin T1” for “Bio-One). CDK4/Cyclin D1”, “complex CDK9/Cyclin T1,” for “complex CDK4/Cyclin D1,”, “mixing CDK9/CyclinT1” for “mixing CDK4/CyclinD1”, “ULight-4E-BP1 (50” for “ULight-4E-BP1 (100”, “ATP (1” for “ATP (2”

H929 cells = assay: CellTiter-Glo Protocol (Proliferation); format: cell-based; settings: Homo sapiens, NCI-H929, 24 hours, read-out: PROLIFERATION_CTG_H929 IC50
Method: CellTiter-Glo® Protocol (Proliferation)
Dispense 10 μL aliquot of prepared H929 cells (1:1 ratio of cells: Trypan Blue (#1450013, Bio-Rad)) onto cell counting slide (#145-0011, Bio-Rad) and obtain cell density and cell viability using a cell counter (TC20, Bio-Rad). Remove appropriate volume of resuspended cells from culture flask to accommodate 4000 cells/well at 10 μL/well. Transfer H929 cells to 50 mL conical (#430290, Corning). Spin down at 1000 rpm for 5 min. using a tabletop centrifuge (SPINCHRON 15, Beckman). Discard supernatant and resuspend cell pellet in modified RPMI 1640 (#10-040-CV, Corning) cell culture media containing 10% FBS (F2422-500ML, Sigma), sodium pyruvate (100 mM) (#25-000-CL, Corning), HEPES buffer (1M) (#25-060-CL, Corning) and glucose (200 g/L) (A24940-01, Gibco) to a cell density of 400,000 cells/mL. Dispense 10 μL of resuspended H929 cells per well in 384-well small volume TC treated plate (#784080, Greiner Bio-one) using standard cassette (#50950372, Thermo Scientific) on Multidrop Combi (#5840310, Thermo Scientific) in laminar flow cabinet. Dispense compounds onto plates using a digital liquid dispenser (D300E, Tecan). Incubate plates in humidified tissue culture incubator at 37° C. for 24 hours. Add 10 μL of prepared CellTiTer-Glo® detection buffer (G7570, Promega) to each well of 384-well plate using small tube cassette (#24073295, Thermo Scientific) on Combi multi-drop, incubate at RT for 30-60 min. Read plates with a microplate reader (PheraStar, BMG Labtech) using 384 well luminescence mode. See Table B (Proliferation_CTG_H929).

CDK2/Cyclin A2 = target: T3, CDK2/Cyclin A2 (Homo sapiens, UniProt P24941); assay: CDK2/CyclinA2 Enzymatic Activity Assay (TR-FRET); format: biochemical; settings: ATP 1 mM, recombinant CDK2/Cyclin A2 1 nM, read-out: CDK2_A2 IC50
T3 construct: purchased ProQinase; host or cells: insect cell
Method: CDK2/CyclinA2 Enzymatic Activity Assay
The inhibitory activity of compounds was evaluated in vitro using TR-FRET assay with white 384-well low volume microplate (Greiner Bio-One). CDK2/Cyclin A2 catalyzed phosphorylation of peptides in the presence and absence of compounds was measured and used in IC50 determination. Recombinant protein complex CDK2/Cyclin A2, expressed from insect cell, was purchased from ProQinase. Testing compounds were dissolved in DMSO at 1 mM and tested in 9-dose IC50 mode. The reaction mixture was prepared by mixing CDK2/CyclinA2 (1 nM final), ULight-4E-BP1 (50 nM final, Perkinelmer, TRF0128-D), and ATP (1 mM final) in assay buffer (20 mM of HEPES pH 7.4, 1 mM of EGTA, 0.05% BSA, 0.005% Tween 20, and 1 mM TCEP). The compound of interest in DMSO was added to each well in 3-fold serial dilution by the dispenser (TECAN D300E) to make a 9.9 μL of the reaction mixture. After 20 minutes preincubation at room temperature, 0.1 μL MgCl2 (10 mM final) was added to initiate the reaction. Following a 45 minutes incubation at 37° C., the reaction was stopped by addition of 2 μL of quenching buffer consisting of Lance detection buffer (Perkinelmer CR97-100C), LANCE Ultra Europium-anti-P-4E-BP1 (Perkinelmer, TRF0216-D), EDTA, and incubate at room temperature for additional 60 minutes in the dark. The reaction signal was measured by Envision multimode plate reader (PerkinElmer, 2102-0010). IC50 values were determined by fitting the data to the standard 4 parameters with Hill Slope using GraphPad Prism software.

T1 sequence (P11802 whole entry): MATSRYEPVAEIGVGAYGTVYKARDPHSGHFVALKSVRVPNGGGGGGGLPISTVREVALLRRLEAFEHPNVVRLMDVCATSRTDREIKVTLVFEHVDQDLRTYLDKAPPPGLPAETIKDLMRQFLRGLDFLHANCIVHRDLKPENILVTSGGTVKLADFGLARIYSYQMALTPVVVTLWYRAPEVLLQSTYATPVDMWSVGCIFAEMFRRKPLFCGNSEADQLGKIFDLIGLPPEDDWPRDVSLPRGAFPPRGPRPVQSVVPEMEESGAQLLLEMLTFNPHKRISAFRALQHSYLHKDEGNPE
T1 sequence (P24385 whole entry partner): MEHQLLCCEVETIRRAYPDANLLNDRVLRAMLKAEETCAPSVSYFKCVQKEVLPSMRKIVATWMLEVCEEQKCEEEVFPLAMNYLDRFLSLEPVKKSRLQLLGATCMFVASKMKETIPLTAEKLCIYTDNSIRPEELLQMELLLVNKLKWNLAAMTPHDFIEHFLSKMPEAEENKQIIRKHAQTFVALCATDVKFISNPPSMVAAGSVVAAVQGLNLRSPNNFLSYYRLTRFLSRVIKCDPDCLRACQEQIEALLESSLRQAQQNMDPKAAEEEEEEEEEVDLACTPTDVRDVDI
T2 sequence (P50750 whole entry): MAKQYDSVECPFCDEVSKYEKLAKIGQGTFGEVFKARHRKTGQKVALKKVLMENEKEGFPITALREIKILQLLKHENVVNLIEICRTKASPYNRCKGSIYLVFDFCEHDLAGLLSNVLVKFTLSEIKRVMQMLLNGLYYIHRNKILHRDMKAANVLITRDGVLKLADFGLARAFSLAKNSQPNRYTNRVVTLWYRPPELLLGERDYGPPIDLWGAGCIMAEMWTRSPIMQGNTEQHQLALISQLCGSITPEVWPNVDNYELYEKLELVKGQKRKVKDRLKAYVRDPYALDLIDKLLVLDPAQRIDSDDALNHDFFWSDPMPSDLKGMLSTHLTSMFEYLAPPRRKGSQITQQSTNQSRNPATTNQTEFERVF
T2 sequence (O60563 whole entry partner): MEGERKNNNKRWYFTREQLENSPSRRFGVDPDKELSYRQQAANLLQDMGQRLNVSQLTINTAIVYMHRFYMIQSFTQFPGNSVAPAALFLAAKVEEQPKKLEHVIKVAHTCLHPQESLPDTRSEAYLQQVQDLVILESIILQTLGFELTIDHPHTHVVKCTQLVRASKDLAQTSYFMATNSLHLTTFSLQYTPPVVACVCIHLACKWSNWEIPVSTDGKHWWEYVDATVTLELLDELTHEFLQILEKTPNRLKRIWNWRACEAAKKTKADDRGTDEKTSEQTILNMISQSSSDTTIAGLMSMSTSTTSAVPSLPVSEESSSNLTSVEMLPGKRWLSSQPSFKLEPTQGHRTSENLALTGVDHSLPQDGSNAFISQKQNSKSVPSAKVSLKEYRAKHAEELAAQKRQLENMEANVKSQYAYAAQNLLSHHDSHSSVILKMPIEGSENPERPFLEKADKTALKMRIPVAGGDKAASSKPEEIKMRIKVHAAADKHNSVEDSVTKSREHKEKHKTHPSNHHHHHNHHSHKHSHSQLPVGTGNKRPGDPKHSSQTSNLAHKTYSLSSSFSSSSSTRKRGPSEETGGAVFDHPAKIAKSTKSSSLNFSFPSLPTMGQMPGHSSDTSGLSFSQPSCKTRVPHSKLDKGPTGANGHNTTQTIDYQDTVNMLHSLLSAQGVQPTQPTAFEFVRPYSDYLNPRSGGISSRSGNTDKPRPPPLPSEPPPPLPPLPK

SMILES | IC50 (CDK4/Cyclin D1) [nM] | IC50 (CDK9/Cyclin T1) [nM] | IC50 (H929 cells) [nM] | IC50 (CDK2/Cyclin A2) [nM]
CC(=O)N[C@@H]1CCC[C@H](C(=O)Nc2cc(-c3cccc4c3CCCN4)c(Cl)cn2)C1 [Example 3, (1S,3R)-3-acetamido-N-(5-chloro-4-(1,2,3,4-tetrahydroquinolin-5-yl)pyridin-2-yl)cyclohexane-1-carboxamide] | > 1000 | 20 to 200 | 20 to 200 | 
CC(=O)N[C@@H]1CCC[C@H](C(=O)Nc2cc(-c3cccc4c3OCCN4)c(Cl)cn2)C1 [Example 4, (1S,3R)-3-acetamido-N-(5-chloro-4-(3,4-dihydro-2H-benzo[b][1,4]oxazin-8-yl)pyridin-2-yl)cyclohexane-1-carboxamide] | > 1000 | < 20 | 20 to 200 | 
Cc1cnc(NC(=O)[C@H]2CCC[C@@H](NC(=O)CC#N)C2)cc1-c1cccc2c1CC(C)(C)N2 [Example 6, (1S,3R)-3-(2-cyanoacetamido)-N-(4-(2,2-dimethylindolin-4-yl)-5-methylpyridin-2-yl)cyclohexane-1-carboxamide] | > 1000 | < 20 |  | 
Cc1cnc(NC(=O)[C@H]2CCC[C@@H](NC(=O)CC#N)C2)cc1-c1cccc2c1OCC(C)(C)N2 [Example 7, (1S,3R)-3-(2-cyanoacetamido)-N-(4-(3,3-dimethyl-3,4-dihydro-2H-benzo[b][1,4]oxazin-8-yl)-5-methylpyridin-2-yl)cyclohexane-1-carboxamide] | > 1000 | 20 to 200 | 200 to 1000 | > 1000
CC(=O)N[C@@H]1CCC[C@H](C(=O)Nc2cc(-c3cccc4c3OCC(C)(C)N4)c(Cl)cn2)C1 [Example 9, (1S,3R)-3-acetamido-N-(5-chloro-4-(3,3-dimethyl-3,4-dihydro-2H-benzo[b][1,4]oxazin-8-yl)pyridin-2-yl)cyclohexane-1-carboxamide] | > 1000 | < 20 |  | 
CC1(C)COc2c(cccc2-c2cc(NC(=O)[C@H]3CCC[C@@H](NC(=O)CC#N)C3)ncc2Cl)N1 [Example 11, (1S,3R)—N-(5-chloro-4-(3,3-dimethyl-3,4-dihydro-2H-benzo[b][1,4]oxazin-8-yl)pyridin-2-yl)-3-(2-cyanoacetamido)cyclohexane-1-carboxamide] | > 1000 | < 20 |  | 
CC(=O)N[C@@H]1CCC[C@H](C(=O)Nc2cc(-c3cccc4c3CC(C)(C)O4)c(Cl)cn2)C1 [Example 14, (1S,3R)-3-acetamido-N-(5-chloro-4-(2,2-dimethyl-2,3-dihydrobenzofuran-4-yl)pyridin-2-yl)cyclohexane-1-carboxamide] | > 1000 | < 20 | 200 to 1000 | 
CC1(C)Cc2cccc(-c3cc(NC(=O)[C@H]4CCC[C@@H](NC(=O)CC#N)C4)ncc3Cl)c2O1 [Example 15, (1S,3R)—N-(5-chloro-4-(2,2-dimethyl-2,3-dihydrobenzofuran-7-yl)pyridin-2-yl)-3-(2-cyanoacetamido)cyclohexane-1-carboxamide] | > 1000 | < 20 |  | 

Other lines, results leading:

IC50 (CDK4/Cyclin D1) [nM] | IC50 (CDK9/Cyclin T1) [nM] | IC50 (H929 cells) [nM] | IC50 (CDK2/Cyclin A2) [nM] | SMILES
200 to 1000 | < 20 | 20 to 200 |  | CC(=O)N[C@@H]1CCC[C@H](C(=O)Nc2cc(-c3cccc4c3CCN4)c(Cl)cn2)C1 [Example 1, (1S,3R)-3-acetamido-N-(5-chloro-4-(indolin-4-yl)pyridin-2-yl)cyclohexane-1-carboxamide]
200 to 1000 | < 20 | 20 to 200 |  | CC(=O)N[C@@H]1CCC[C@H](C(=O)Nc2cc(-c3cccc4c3CC(C)N4)c(Cl)cn2)C1 (stereo partly drawn) [Example 2, (1S,3R)-3-acetamido-N-(5-chloro-4-(2-methylindolin-4-yl)pyridin-2-yl)cyclohexane-1-carboxamide]
20 to 200 | < 20 | 20 to 200 | > 1000 | CC(=O)N[C@@H]1CCC[C@H](C(=O)Nc2cc(-c3cccc4c3CC(C)(C)N4)c(Cl)cn2)C1 [Example 5, (1S,3R)-3-acetamido-N-(5-chloro-4-(2,2-dimethylindolin-4-yl)pyridin-2-yl)cyclohexane-1-carboxamide]
20 to 200 | < 20 |  |  | N#CCC(=O)N[C@@H]1CCC[C@H](C(=O)Nc2cc(-c3cccc4c3OCCN4)c(Cl)cn2)C1 [Example 10, (1S,3R)—N-(5-chloro-4-(3,4-dihydro-2H-benzo[b][1,4]oxazin-8-yl)pyridin-2-yl)-3-(2-cyanoacetamido)cyclohexane-1-carboxamide]
20 to 200 | < 20 |  | 200 to 1000 | N#CCC(=O)N[C@@H]1CCC[C@H](C(=O)Nc2cc(-c3cc(F)cc4c3OCCN4)c(Cl)cn2)C1 [Example 12, (1S,3R)—N-(5-chloro-4-(6-fluoro-3,4-dihydro-2H-benzo[b][1,4]oxazin-8-yl)pyridin-2-yl)-3-(2-cyanoacetamido)cyclohexane-1-carboxamide]
20 to 200 | < 20 |  |  | CC1COc2c(cc(F)cc2-c2cc(NC(=O)[C@H]3CCC[C@@H](NC(=O)CC#N)C3)ncc2Cl)N1 (stereo partly drawn) [Example 13, (1S,3R)—N-(5-chloro-4-(6-fluoro-3-methyl-3,4-dihydro-2H-benzo[b][1,4]oxazin-8-yl)pyridin-2-yl)-3-(2-cyanoacetamido)cyclohexane-1-carboxamide]
